# Test results taken from patent US9850283B2, “Macrocyclic inhibitors of the PD-1/PD-L1 and CD80(B7-1)/PD-L1 protein/protein interactions” (BRISTOL-MYERS SQUIBB COMPANY, priority 2013, dated 2017).
# Like-named read-outs stand apart in the source and are kept apart here. Positions of bridges follow the written chain, without caps; N, C: chain ends. Non-standard residues stand in square brackets, D forms with d. Residues, ends and D or L forms follow the SMILES beside them. ξ: configuration not given here. *: point of attachment. NHTrityl = c1ccc(C(N*)(c2ccccc2)c2ccccc2)cc1; Phe(3-Cl) = N[C@@H](Cc1cccc(Cl)c1)C(=O)O; Phe(4-Me) = Cc1ccc(C[C@H](N)C(=O)O)cc1; d(cisHyp) = O=C(O)[C@H]1C[C@@H](O)CN1; Phe(2-F) = N[C@@H](Cc1ccccc1F)C(=O)O; Bta = N[C@@H](Cc1csc2ccccc12)C(=O)O; Hyp = O=C(O)[C@@H]1C[C@@H](O)CN1; NMeF = CN[C@@H](Cc1ccccc1)C(=O)O; dNMeE = CN[C@H](CCC(=O)O)C(=O)O; NMeNle = CCCC[C@H](NC)C(=O)O; NMeM = CN[C@@H](CCSC)C(=O)O; NMeA = CN[C@@H](C)C(=O)O; Dab = NCC[C@H](N)C(=O)O; Dap = NC[C@H](N)C(=O)O; ξC = NC(CS)C(=O)O; Sar = CNCC(=O)O
# Assays:
# Human PD-L1/PD-1 = target: T1, Human PD-L1/PD-1 (Homo sapiens, UniProt Q9NZQ7); assay: HTRF PD-1-Ig/PD-L1-His binding assay (human PD-L1)
# T1 construct: made in house; host or cells: HEK293T
# T1 sequence (Q9NZQ7 with tags, fused parts or gaps): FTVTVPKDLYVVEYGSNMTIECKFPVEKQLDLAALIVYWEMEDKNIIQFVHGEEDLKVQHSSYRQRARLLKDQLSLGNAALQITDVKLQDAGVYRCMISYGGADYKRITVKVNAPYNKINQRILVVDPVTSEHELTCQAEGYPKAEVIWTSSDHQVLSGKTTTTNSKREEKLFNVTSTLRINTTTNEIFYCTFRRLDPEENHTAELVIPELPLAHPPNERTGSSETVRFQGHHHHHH
# How it was run: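 Steps: truncated PD-1-Ig and PD-L1-His fusions are incubated in dPBS containing 0.1% (w/v) BSA and 0.05% (v/v) Tween-20. Detection antibodies are then added (Eu cryptate anti-Ig at 1 nM final, APC anti-His at 20 nM final), and time-resolved FRET is measured.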
# [1] = target: T2, LK35.2-hPD-L1 cells / PE-labeled PD-1-Ig (Homo sapiens, UniProt Q9NZQ7); assay: LK35.2-hPD-L1 cell binding high-content screening assay; assay type: cell-based
# T2 construct: expressed in transfected cells; host or cells: LK35.2 mouse B cell line
# T2 sequence (Q9NZQ7 19-290): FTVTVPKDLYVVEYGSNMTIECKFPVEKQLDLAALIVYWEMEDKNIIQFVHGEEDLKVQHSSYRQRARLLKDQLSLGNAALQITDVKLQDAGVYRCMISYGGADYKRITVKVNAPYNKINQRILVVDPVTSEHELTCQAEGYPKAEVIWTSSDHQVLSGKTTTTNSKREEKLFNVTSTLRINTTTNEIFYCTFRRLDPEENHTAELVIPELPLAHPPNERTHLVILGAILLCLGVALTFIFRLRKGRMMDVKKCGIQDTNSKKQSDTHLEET
# How it was run: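 Compound effect on PD-1/PD-L1 binding is measured by imaging cell-associated phycoerythrin signal. Human PD-1-Ig (PE on Ig tag, 1 nM final) is applied with compound to a murine B cell line overexpressing human PD-L1 for 1 h at 37 °C in serum-containing RPMI.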
# [2] = cluster symbol, read-out: HTRF IC50 cluster
# [3] = cluster symbol, cell line of CBA not given (LK35.2-hPD-L1 or 293T-hPD-L1), read-out: CBA IC50 cluster
# [4] = cell binding assay, cell line not given, cluster symbol, read-out: CBA IC50 cluster
Compound,IC50 (Human PD-L1/PD-1; [2]),"IC50 [1, 3]","IC50 [1, 4]","IC50 (Human PD-L1/PD-1; HTRF IC50 value, value given instead of cluster)","IC50 ([1]; CBA IC50 value, cell binding assay, cell line not given, value given instead of cluster)"
CCCC[C@H]1C(=O)N(C)CC(=O)N[C@@H](CC(=O)O)C(=O)N[C@@H](C(C)C)C(=O)N(C)[C@@H](Cc2ccccc2)C(=O)N[C@@H](Cc2ccc(O)cc2)C(=O)N(C)CC(=O)N[C@@H](Cc2c[nH]c3ccccc23)C(=O)N[C@@H](Cc2ccc(O)cc2)C(=O)N[C@@H](CC(C)C)C(=O)N[C@H](C(=O)NCC(N)=O)CC=CC(=O)N[C@@H](Cc2ccccc2)C(=O)N(C)[C@@H](Cc2ccccc2)C(=O)N1C [Example 3160],> 30.5 nM,> 74.3 nM,,,
"CCCC[C@H]1C(=O)N(C)CC(=O)N[C@@H](CC(=O)O)C(=O)N[C@@H](C(C)C)C(=O)N(C)[C@@H](Cc2ccccc2)C(=O)N[C@@H](Cc2ccc(O)cc2)C(=O)N(C)CC(=O)N[C@@H](Cc2c[nH]c3ccccc23)C(=O)N[C@@H](Cc2ccc(O)cc2)C(=O)N[C@@H](CC(C)C)C(=O)N[C@H](C(=O)NCC(N)=O)CSCC(=O)N[C@@H](Cc2ccccc2)C(=O)N(C)[C@@H](CCC(=O)O)C(=O)N1C [Example 3064] (HELM PEPTIDE1{[O=C(C[*:3])[*:2]].F.[meE].[CCCC[C@@H](C(=O)[*:2])N(C)[*:1]].[Sar].D.V.[meF].Y.[Sar].W.Y.L.C.G.[am]}$PEPTIDE1,PEPTIDE1,1:R3-14:R3$$$V2.0)",6.76 to 30.3 nM,> 74.3 nM,,,
CCCC[C@H]1C(=O)N2C[C@H](O)C[C@@H]2C(=O)N[C@H](CC(=O)NC(c2ccccc2)(c2ccccc2)c2ccccc2)C(=O)N[C@@H](C(C)C)C(=O)N(C)[C@@H](Cc2ccccc2)C(=O)N[C@@H](Cc2ccc(O)cc2)C(=O)N(C)[C@H](CCC(=O)O)C(=O)N[C@@H](Cc2c[nH]c3ccccc23)C(=O)N[C@@H](Cc2ccc(O)cc2)C(=O)N[C@@H](CCCCN)C(=O)N[C@H](C(=O)NCC(N)=O)CSCC(=O)N[C@@H](Cc2ccccc2)C(=O)N(C)[C@@H](Cc2ccccc2)C(=O)N1C [Example 3595] ({CH2CO}-F[NMeF][NMeNle][d(cisHyp)][dD](NHTrityl)V[NMeF]Y[dNMeE]WYKCG-NH2; thioether N-13),,,,991 nM,123 nM
CCCC[C@H]1C(=O)N(C)[C@@H](CCCC)C(=O)N[C@@H](CC(=O)O)C(=O)N[C@H](C(=O)NCC(N)=O)CSCC(=O)N[C@@H](Cc2ccc(O)cc2)C(=O)N(C)[C@@H](C)C(=O)N[C@@H](CC(N)=O)C(=O)N2CCC[C@H]2C(=O)N[C@@H](Cc2c[nH]cn2)C(=O)N[C@@H](CCC(N)=O)C(=O)N2C[C@H](O)C[C@H]2C(=O)N[C@@H](Cc2c[nH]c3ccccc23)C(=O)N[C@@H](CO)C(=O)N[C@@H](Cc2c[nH]c3ccccc23)C(=O)N1C [Example 5103] ({CH2CO}-Y[NMeA]NPHQ[Hyp]WSW[NMeNle][NMeNle]DCG-NH2; thioether N-14),6.76 to 30.3 nM,,4.78 to 72.9 nM,,
CCCC[C@H]1C(=O)N2C[C@H](O)C[C@@H]2C(=O)N[C@@H](CC(N)=O)C(=O)N[C@@H](C(C)C)C(=O)N(C)[C@@H](Cc2ccccc2)C(=O)N[C@@H](Cc2ccc(O)cc2)C(=O)N(C)[C@H](CCC(=O)O)C(=O)N[C@@H](Cc2c[nH]c3ccccc23)C(=O)N[C@@H](Cc2ccc(O)cc2)C(=O)N[C@@H](CCCCN)C(=O)N[C@H](C(=O)NCC(N)=O)CSCC(=O)N[C@@H](Cc2ccccc2)C(=O)N(C)[C@@H](Cc2ccccc2)C(=O)N1C [Example 3594] ({CH2CO}-F[NMeF][NMeNle][d(cisHyp)]NV[NMeF]Y[dNMeE]WYKCG-NH2; thioether N-13),6.76 to 30.3 nM,,0.158 to 4.71 nM,,
CCCC[C@H]1C(=O)N(C)[C@@H](CCCC)C(=O)N[C@@H](CCN)C(=O)N[C@H](C(=O)NCC(N)=O)CSCC(=O)N[C@@H](Cc2ccc(O)cc2)C(=O)N(C)[C@@H](C)C(=O)N[C@@H](CC(N)=O)C(=O)N2CCC[C@H]2C(=O)N[C@@H](CN)C(=O)N[C@@H](CCC(N)=O)C(=O)N2C[C@H](O)C[C@H]2C(=O)N[C@@H](Cc2c[nH]c3ccccc23)C(=O)N[C@@H](CO)C(=O)N[C@@H](Cc2c[nH]c3ccccc23)C(=O)N1C [Example 5042] ({CH2CO}-Y[NMeA]NP[Dap]Q[Hyp]WSW[NMeNle][NMeNle][Dab]CG-NH2; thioether N-14),0.385 to 6.74 nM,,0.158 to 4.71 nM,,
CCCC[C@H]1C(=O)N(C)CC(=O)N[C@@H](CC(=O)O)C(=O)N[C@@H](C(C)C)C(=O)N(C)[C@@H](Cc2ccccc2)C(=O)N[C@@H](Cc2ccc(O)cc2)C(=O)N(C)CC(=O)N[C@@H](Cc2c[nH]c3ccccc23)C(=O)N[C@@H](Cc2ccc(O)cc2)C(=O)N[C@@H](CC(C)C)C(=O)N[C@H](C(=O)NCC(N)=O)CSCC(=O)N[C@@H](Cc2ccccc2F)C(=O)N(C)[C@@H](Cc2ccccc2)C(=O)N1C [Example 3568] ({CH2CO}-[Phe(2-F)][NMeF][NMeNle][Sar]DV[NMeF]Y[Sar]WYLCG-NH2; thioether N-13),> 30.5 nM,,4.78 to 72.9 nM,,
CCCC[C@H]1C(=O)N(C)[C@@H](CCCC)C(=O)N[C@@H](CCCNC(=N)N)C(=O)N[C@H](C(=O)NCC(N)=O)CSCC(=O)N[C@@H](Cc2ccccc2)C(=O)N(C)[C@@H](C)C(=O)N[C@@H](CC(N)=O)C(=O)N2CCC[C@H]2C(=O)N[C@@H](CC(=O)O)C(=O)N[C@@H](CC(C)C)C(=O)N(C)CC(=O)N[C@@H](Cc2c[nH]c3ccccc23)C(=O)N[C@@H](CO)C(=O)N[C@@H](Cc2c[nH]c3ccccc23)C(=O)N1C [Example 1064] ({CH2CO}-F[NMeA]NPDL[Sar]WSW[NMeNle][NMeNle]RCG-NH2; thioether N-14),> 30.5 nM,> 74.3 nM,,,
CCCC[C@H]1C(=O)N(C)CC(=O)N[C@@H](CC(=O)O)C(=O)N[C@@H](C(C)C)C(=O)N(C)[C@@H](Cc2ccccc2)C(=O)N[C@@H](Cc2ccc(O)cc2)C(=O)N(C)CC(=O)N[C@@H](Cc2c[nH]c3ccccc23)C(=O)N[C@@H](Cc2ccc(O)cc2)C(=O)N[C@@H](Cc2ccc(C)cc2)C(=O)N[C@H](C(=O)NCC(N)=O)CSCC(=O)N[C@@H](Cc2ccccc2)C(=O)N(C)[C@@H](Cc2ccccc2)C(=O)N1C [Example 3107] ({CH2CO}-F[NMeF][NMeNle][Sar]DV[NMeF]Y[Sar]WY[Phe(4-Me)]CG-NH2; thioether N-13),6.76 to 30.3 nM,4.78 to 72.9 nM,,,

# Now from value to molecule, other results behind:
IC50 (Human PD-L1/PD-1; [2]),"IC50 [1, 3]","IC50 [1, 4]",Compound,"IC50 (Human PD-L1/PD-1; HTRF IC50 value, value given instead of cluster)","IC50 ([1]; CBA IC50 value, cell binding assay, cell line not given, value given instead of cluster)"
0.385 to 6.74 nM,,0.158 to 4.71 nM,CCCC[C@H]1C(=O)N(C)[C@@H](CCSC)C(=O)N[C@@H](CCCNC(=N)N)C(=O)NC(C(=O)NCC(N)=O)CSCC(=O)N[C@@H](Cc2ccc(O)cc2)C(=O)N(C)[C@@H](C)C(=O)N[C@@H](CC(N)=O)C(=O)N2CCC[C@H]2C(=O)N[C@@H](Cc2cnc[nH]2)C(=O)N[C@@H](CC(C)C)C(=O)N2C[C@H](O)C[C@H]2C(=O)N[C@@H](Cc2c[nH]c3ccccc23)C(=O)N[C@@H](CO)C(=O)N[C@@H](Cc2csc3ccccc23)C(=O)N1C (stereo partly shown) [Example 9023] ({CH2CO}-Y[NMeA]NPHL[Hyp]WS[Bta][NMeNle][NMeM]R[ξC]G-NH2; thioether N-14),,
6.76 to 30.3 nM,0.158 to 4.71 nM,,CCCC[C@H]1C(=O)N(C)[C@@H](CCCC)C(=O)N[C@@H](C)C(=O)N[C@H](C(=O)NCC(N)=O)CSCC(=O)N[C@@H](Cc2ccc(O)cc2)C(=O)N(C)[C@@H](C)C(=O)N[C@@H](CC(N)=O)C(=O)N2CCC[C@H]2C(=O)N[C@@H](Cc2cnc[nH]2)C(=O)N[C@@H](CC(C)C)C(=O)N2CCC[C@H]2C(=O)N[C@@H](Cc2c[nH]c3ccccc23)C(=O)N[C@@H](CO)C(=O)N[C@@H](Cc2csc3ccccc23)C(=O)N1C [Example 1049] ({CH2CO}-Y[NMeA]NPHLPWS[Bta][NMeNle][NMeNle]ACG-NH2; thioether N-14),,
0.385 to 6.74 nM,0.158 to 4.71 nM,,CCCC[C@H]1C(=O)N(C)[C@@H](CCCC)C(=O)N[C@@H](CCCNC(=N)N)C(=O)N[C@H](C(=O)NCC(N)=O)CSCC(=O)N[C@@H](Cc2ccc(O)cc2)C(=O)N(C)[C@@H](C)C(=O)N[C@@H](CC(N)=O)C(=O)N2CCC[C@H]2C(=O)N[C@@H](Cc2cnc[nH]2)C(=O)N[C@@H](CC(C)C)C(=O)N2CCC[C@H]2C(=O)N[C@@H](Cc2c[nH]c3ccccc23)C(=O)N[C@@H](CO)C(=O)N[C@@H](Cc2csc3ccccc23)C(=O)N1C [Example 1014] ({CH2CO}-Y[NMeA]NPHLPWS[Bta][NMeNle][NMeNle]RCG-NH2; thioether N-14),,
> 30.5 nM,> 74.3 nM,,CCCC[C@H]1C(=O)N(C)[C@@H](CCCC)C(=O)N[C@@H](CCCNC(=N)N)C(=O)N[C@H](C(=O)NCC(N)=O)CSCC(=O)N[C@@H](Cc2cccc(Cl)c2)C(=O)N(C)[C@@H](C)C(=O)N[C@@H](CC(N)=O)C(=O)N2CCC[C@H]2C(=O)N[C@@H](Cc2cnc[nH]2)C(=O)N[C@@H](CC(C)C)C(=O)N(C)CC(=O)N[C@@H](Cc2c[nH]c3ccccc23)C(=O)N[C@@H](CO)C(=O)N[C@@H](Cc2c[nH]c3ccccc23)C(=O)N1C [Example 1102] ({CH2CO}-[Phe(3-Cl)][NMeA]NPHL[Sar]WSW[NMeNle][NMeNle]RCG-NH2; thioether N-14),,
6.76 to 30.3 nM,,0.158 to 4.71 nM,CCCC[C@H]1C(=O)N[C@@H](CCCNC(=N)N)C(=O)NC(C(=O)NCC(N)=O)CSCC(=O)N[C@@H](Cc2ccc(O)cc2)C(=O)N(C)[C@@H](C)C(=O)N[C@@H](CC(N)=O)C(=O)N2CCC[C@H]2C(=O)N[C@@H](CN)C(=O)N[C@@H](CC(C)C)C(=O)N2C[C@H](O)C[C@H]2C(=O)N[C@@H](Cc2c[nH]c3ccccc23)C(=O)N[C@@H](CO)C(=O)N[C@@H](Cc2csc3ccccc23)C(=O)N(C)[C@@H](CCSC)C(=O)N1C (stereo partly shown) [Example 9092] ({CH2CO}-Y[NMeA]NP[Dap]L[Hyp]WS[Bta][NMeM][NMeNle]R[ξC]G-NH2; thioether N-14),,
